Results reported in patent US20050009894A1 (Aventis Pharma S.A., priority 2001, published 2005).

These compounds were tested against T1, human KDR enzyme (Homo sapiens, UniProt P35968) (assay: Phosphorylation of the substrate PLCγ by the enzyme KDR in vitro (flashplate technique)). Details: Table VII, degrees of activity by IC50 range; read-out: Activity.
T1 construct: The cytoplasmic domain of human KDR enzyme is cloned in the form of a GST fusion; GST; made in house; host or cells: SF21 insect cells (baculovirus, pFastBac)
Type: biochemical
Procedure: The inhibitory effect of the compounds is determined in a test of phosphorylation of a substrate by the enzyme KDR in vitro by the flasplate technique (96-well plate, NEN). The cytoplasmic domain of human KDR enzyme is cloned in the form of a GST fusion into the baculovirus expression vector pFastBac. The protein is expressed in the SF21 cells and purified to about 60% homogeneity.
The kinase activity of KDR is measured in 20 mM MOPS, 10 mM MgCl2, 10 mM MnCl2, 1 mM DTT, 2.5 mM EGTA, 10 mM β-glycerophosphate, pH 7.2 in the presence of 10 mM MgCl2, 100 μM Na3VO4, 1 mM NaF. 10 μl of the compound are added to 70 μl of kinase buffer containing 100 ng of KDR enzyme at 4° C. The reaction is initiated by adding 20 μl of solution containing 2 μg of substrate (fragment SH2-SH3 of PLCγ expressed in the form of a GST fusion protein), 2 μCi γ33P[ATP] and 2 μM cold ATP. After incubating for 1 h at 37° C., the reaction is quenched by adding 1 volume (100 μl) of 200 mM EDTA. The incubation buffer is removed and the wells are washed three times with 300 μl of PBS. The radioactivity is measured in each well using a Top Count NXT instrument (Packard).
Background noise is determined by measuring the radio-activity in wells in quadruplet containing radioactive ATP and the substrate alone.
An activity control is measured in wells in quadruplet containing all the reagents (γ33P-[ATP], KDR and the substrate PLCγ) and in the absence of compound.
The inhibition of the KDR activity with the compound of the invention is expressed as a percentage of inhibition of the control activity determined in the absence of compound.
The compound SU5614 (Calbiochem) (1 μM) is included in each plate as inhibition control.
The IC50 values for the compounds are calculated by plotting the dose-response curves. The IC50 corresponds to the concentration of compound that induces a 50% inhibition of the kinase activity.

T1 sequence (P35968 786-1356 limits assumed): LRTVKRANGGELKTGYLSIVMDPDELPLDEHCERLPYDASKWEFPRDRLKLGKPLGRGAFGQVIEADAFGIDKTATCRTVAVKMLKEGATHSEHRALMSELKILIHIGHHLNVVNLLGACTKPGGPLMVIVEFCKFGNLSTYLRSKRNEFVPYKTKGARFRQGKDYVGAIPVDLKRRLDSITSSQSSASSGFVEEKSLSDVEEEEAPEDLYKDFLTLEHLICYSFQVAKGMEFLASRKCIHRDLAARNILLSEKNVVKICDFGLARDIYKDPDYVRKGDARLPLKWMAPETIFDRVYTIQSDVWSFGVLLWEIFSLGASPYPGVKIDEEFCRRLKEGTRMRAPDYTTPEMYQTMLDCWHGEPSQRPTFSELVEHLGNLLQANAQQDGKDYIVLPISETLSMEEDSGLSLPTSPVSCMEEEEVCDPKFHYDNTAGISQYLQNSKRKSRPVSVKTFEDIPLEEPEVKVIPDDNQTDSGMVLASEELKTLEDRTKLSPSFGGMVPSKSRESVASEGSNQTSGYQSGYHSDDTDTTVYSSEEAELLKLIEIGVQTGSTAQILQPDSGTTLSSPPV

| IC50 [µM] | SMILES |
| --- | --- |
| > 3 | O=C(NCc1cccs1)c1cccc2nc(-c3n[nH]c4ccccc34)[nH]c12 [Example 77, 2-(1H-Indazol-3-yl)-3H-benzoimidazole-4-carboxylic acid (thiophen-2-ylmethyl)-amide] |
| > 3 | CN(C)c1ccc(CNC(=O)c2cccc3nc(-c4n[nH]c5ccccc45)[nH]c23)cc1 [Example 78, 2-(1H-Indazol-3-yl)-3H-benzoimidazole-4-carboxylic acid 4-dimethylamino-benzylamide] |
| > 3 | O=C(NCc1ccc([N+](=O)[O-])cc1)c1cccc2nc(-c3n[nH]c4ccccc34)[nH]c12 [Example 79, 2-(1H-Indazol-3-yl)-3H-benzoimidazole-4-carboxylic acid 4-nitro-benzylamide] |
| 0.3 to 3 | O=C(NCc1cccnc1)c1cccc2nc(-c3n[nH]c4ccccc34)[nH]c12 [Example 80, 2-(1H-Indazol-3-yl)-3H-benzoimidazole-4-carboxylic acid (pyridin-3-ylmethyl)-amide] |
| > 3 | O=C(NCc1cccc(Br)c1)c1cccc2nc(-c3n[nH]c4ccccc34)[nH]c12 [Example 81, 2-(1H-Indazol-3-yl)-3H-benzoimidazole-4-carboxylic acid 3-bromo-benzylamide] |
| 0.3 to 3 | COc1cccc(CNC(=O)c2cccc3nc(-c4n[nH]c5ccccc45)[nH]c23)c1 [Example 82, 2-(1H-Indazol-3-yl)-3H-benzoimidazole-4-carboxylic acid 3-methoxy-benzylamide] |
| > 3 | O=C(NCc1csc2ccccc12)c1cccc2nc(-c3n[nH]c4ccccc34)[nH]c12 [Example 83, 2-(1H-Indazol-3-yl)-3H-benzoimidazole-4-carboxylic acid (benzo[b]thiophen-3-ylmethyl)-amide] |
| > 3 | O=C(NCc1ccc(Oc2ccccc2)cc1)c1cccc2nc(-c3n[nH]c4ccccc34)[nH]c12 [Example 84, 2-(1H-Indazol-3-yl)-3H-benzoimidazole-4-carboxylic acid 4-phenoxy-benzylamide] |
| > 3 | O=C(NCc1cccc(OC(F)(F)F)c1)c1cccc2nc(-c3n[nH]c4ccccc34)[nH]c12 [Example 85, 2-(1H-Indazol-3-yl)-3H-benzoimidazole-4-carboxylic acid 3-trifluoromethoxy-benzylamide] |
| > 3 | O=C(NCc1ccc(Cl)nc1)c1cccc2nc(-c3n[nH]c4ccccc34)[nH]c12 [Example 86, 2-(1H-Indazol-3-yl)-3H-benzoimidazole-4-carboxylic acid (6-chloro-pyridin-3-ylmethyl)-amide] |
| > 3 | O=C(NCc1ccc2c(c1)CCO2)c1cccc2nc(-c3n[nH]c4ccccc34)[nH]c12 [Example 87, 2-(1H-Indazol-3-yl)-3H-benzoimidazole-4-carboxylic acid (2,3-dihydro-benzofuran-5-ylmethyl)-amide] |
| > 3 | O=C(NCc1cccc(C(F)(F)F)c1)c1cccc2nc(-c3n[nH]c4ccccc34)[nH]c12 [Example 88, 2-(1H-Indazol-3-yl)-3H-benzoimidazole-4-carboxylic acid 3-trifluoromethyl-benzylamide] |
| < 0.3 | CSc1ccccc1CNC(=O)c1cccc2nc(-c3n[nH]c4ccccc34)[nH]c12 [Example 89, 2-(1H-Indazol-3-yl)-3H-benzoimidazole-4-carboxylic acid 2-methylsulfanyl-benzylamide] |
| 0.3 to 3 | O=C(NCc1ccoc1)c1cccc2nc(-c3n[nH]c4ccccc34)[nH]c12 [Example 90, 2-(1H-Indazol-3-yl)-3H-benzoimidazole-4-carboxylic acid (furan-3-ylmethyl)-amide] |
| 0.3 to 3 | O=C(NCc1ccccc1[N+](=O)[O-])c1cccc2nc(-c3n[nH]c4ccccc34)[nH]c12 [Example 91, 2-(1H-Indazol-3-yl)-3H-benzoimidazole-4-carboxylic acid 2-nitro-benzylamide] |
| 0.3 to 3 | Cc1cc(C)cc(CNC(=O)c2cccc3nc(-c4n[nH]c5ccccc45)[nH]c23)c1 [Example 92, 2-(1H-Indazol-3-yl)-3H-benzoimidazole-4-carboxylic acid 3,5-dimethyl-benzylamide] |
| > 3 | O=C(NCc1cccc(Cl)c1)c1cccc2nc(-c3n[nH]c4ccccc34)[nH]c12 [Example 93, 2-(1H-Indazol-3-yl)-3H-benzoimidazole-4-carboxylic acid 3-chloro-benzylamide] |
| 0.3 to 3 | O=C(Nc1ccccc1)c1cccc2nc(-c3n[nH]c4ccccc34)[nH]c12 [Example 94, 2-(1H-Indazol-3-yl)-3H-benzoimidazole-4-carboxylic acid phenylamide] |
| > 3 | O=C(NCc1ccccc1)c1cccc2nc(-c3n[nH]c4ccccc34)[nH]c12 [Example 95, 2-(1H-Indazol-3-yl)-3H-benzoimidazole-4-carboxylic acid benzylamide] |

| IC50 [µM] | SMILES |
| --- | --- |
| > 3 | O=C(NCCc1ccccc1)c1cccc2nc(-c3n[nH]c4ccccc34)[nH]c12 [Example 96, 2-(1H-Indazol-3-yl)-3H-benzoimidazole-4-carboxylic acid phenethyl-amide] |
| > 3 | c1ccc(-c2ccc3nc(-c4[nH]nc5ccccc45)[nH]c3c2)cc1 [Example 97, 3-(6-Phenyl-1H-benzimidazol-2-yl)-2H-indazole] |
| > 3 | Clc1ccc(-c2ccc3nc(-c4[nH]nc5ccccc45)[nH]c3c2)c(Cl)c1 [Example 98, 3-[6-(2,4-Dichloro-phenyl)-1H-benzoimidazol-2-yl]-2H-indazole] |
| > 3 | c1ccc2c(-c3ccc4nc(-c5[nH]nc6ccccc56)[nH]c4c3)cccc2c1 [Example 99, 3-(6-Naphthalen-1-yl-1H-benzoimidazol-2-yl)-2H-indazole] |
| 0.3 to 3 | Fc1ccc(-c2ccc3nc(-c4[nH]nc5ccccc45)[nH]c3c2)cc1 [Example 100, 3-[6-(4-Fluoro-phenyl)-1H-benzoimidazol-2-yl]-2H-indazole] |
| > 3 | Clc1ccc(-c2ccc3nc(-c4[nH]nc5ccccc45)[nH]c3c2)cc1 [Example 101, 3-[6-(4-Chloro-phenyl)-1H-benzoimidazol-2-yl]-2H-indazole] |
| 0.3 to 3 | COc1ccc(-c2ccc3nc(-c4[nH]nc5ccccc45)[nH]c3c2)cc1 [Example 102, 3-[6-(4-Methoxy-phenyl)-1H-benzoimidazol-2-yl]-2H-indazole] |
| 0.3 to 3 | Fc1ccc(-c2ccc3nc(-c4[nH]nc5ccccc45)[nH]c3c2)cc1Cl [Example 103, 3-[6-(3-Chloro-4-fluoro-phenyl)-1H-benzoimidazol-2-yl]-2H-indazole] |
| > 3 | Clc1cc(Cl)cc(-c2ccc3nc(-c4[nH]nc5ccccc45)[nH]c3c2)c1 [Example 104, 3-[6-(3,5-Dichloro-phenyl)-1H-benzoimidazol-2-yl]-2H-indazole] |
| > 3 | c1ccc2c(c1)Sc1cccc(-c3ccc4nc(-c5n[nH]c6ccccc56)[nH]c4c3)c1S2 [Example 105, 3-(6-Thianthren-1-yl-1H-benzoimidazol-2-yl)-2H-indazole] |
| > 3 | c1ccc(-c2ccc(-c3ccc4nc(-c5[nH]nc6ccccc56)[nH]c4c3)cc2)cc1 [Example 106, 3-(6-Biphenyl-4-yl-1H-benzoimidazol-2-yl)-2H-indazole] |
| > 3 | Cc1ccc(-c2ccc3nc(-c4[nH]nc5ccccc45)[nH]c3c2)cc1 [Example 107, 3-(6-p-Tolyl-1H-benzoimidazol-2-yl)-2H-indazole] |
| 0.3 to 3 | Cc1cccc(-c2ccc3nc(-c4[nH]nc5ccccc45)[nH]c3c2)c1 [Example 108, 3-(6-m-Tolyl-1H-benzoimidazol-2-yl)-2H-indazole] |
| 0.3 to 3 | Cc1ccccc1-c1ccc2nc(-c3[nH]nc4ccccc34)[nH]c2c1 [Example 109, 3-(6-o-Tolyl-1H-benzoimidazol-2-yl)-2H-indazole] |
| 0.3 to 3 | c1ccc2c(-c3nc4ccc(-c5ccsc5)cc4[nH]3)[nH]nc2c1 [Example 110, 3-(6-Thiophen-3-yl-1H-benzoimidazol-2-yl)-2H-indazole] |
| > 3 | FC(F)(F)c1cccc(-c2ccc3nc(-c4[nH]nc5ccccc45)[nH]c3c2)c1 [Example 111, 3-[6-(3-Trifluoromethyl-phenyl)-1H-benzoimidazol-2-yl]-2H-indazole] |
| > 3 | FC(F)(F)c1ccc(-c2ccc3nc(-c4[nH]nc5ccccc45)[nH]c3c2)cc1 [Example 112, 3-[6-(4-Trifluoromethyl-phenyl)-1H-benzoimidazol-2-yl]-2H-indazole] |
| 0.3 to 3 | Clc1cccc(-c2ccc3nc(-c4[nH]nc5ccccc45)[nH]c3c2)c1 [Example 113, 3-[6-(3-Chloro-phenyl)-1H-benzoimidazol-2-yl]-2H-indazole] |
